From patent US10131652B2, “Pyrimidinyloxy benzene derivatives as herbicides” (E. I. DU PONT DE NEMOURS AND COMPANY, priority 2014, dated 2018)

Columns and labels:
Format in all cases: in vivo
[1] = tested on: ragweed (common ragweed, Ambrosia elatior); test: Test D pre-/postemergence plant response
Summary of the method: (§1)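 Test chemicals were formulated in a non-phytotoxic solvent mixture containing surfactant and applied either preemergence to seeds in loam–sand soil or postemergence to plants 2 to 18 cm tall (1- to 4-leaf stage). Response was rated visually against controls after 13 to 15 days, from 0 (none) to 100 (complete control).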

[2] = tested on: morningglory (Ipomoea coccinea); test: Test D pre-/postemergence plant response
Summary of the method: as §1

[3] = tested on: yellow nutsedge (Cyperus esculentus); test: Test D pre-/postemergence plant response
Summary of the method: as §1

[4] = tested on: barnyardgrass (Echinochloa crus-galli); test: Test D pre-/postemergence plant response
Summary of the method: as §1

[5] = tested on: large (Lg) crabgrass (Digitaria sanguinalis); test: Test D pre-/postemergence plant response
Summary of the method: as §1

[6] = tested on: waterhemp (common waterhemp, Amaranthus rudis); test: Test D pre-/postemergence plant response
Summary of the method: as §1

[7] = tested on: pigweed (Amaranthus retroflexus); test: Test D pre-/postemergence plant response
Summary of the method: as §1

[8] = tested on: blackgrass (Alopecurus myosuroides); test: Test D pre-/postemergence plant response
Summary of the method: as §1

[9] = tested on: giant foxtail (Setaria faberii); test: Test D pre-/postemergence plant response
Summary of the method: as §1

[10] = tested on: johnsongrass (Sorghum halepense); test: Test D pre-/postemergence plant response
Summary of the method: as §1

soybean (Glycine max) = test: Test D pre-/postemergence plant response
Summary of the method: as §1

[11] = tested on: wheat (Triticum aestivum); test: Test B pre-/postemergence plant response; settings: 0 to 100 scale, 0 no effect, 100 complete control
Summary of the method: (§2)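 Visual injury scores on a 0–100 scale (100 = complete control) relative to untreated plants, taken about 10 days post-treatment in greenhouse. Treatments were a directed preemergence soil spray and a postemergence spray at one- to two-leaf stage, using surfactant-containing solvent formulation.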

[12] = tested on: barnyardgrass (Echinochloa crus-galli); test: Test B pre-/postemergence plant response
Summary of the method: as §2

corn (Zea mays) = test: Test B pre-/postemergence plant response; settings: 0 to 100 scale, 0 no effect, 100 complete control
Summary of the method: as §2

[13] = tested on: pigweed (Amaranthus retroflexus); test: Test B pre-/postemergence plant response
Summary of the method: as §2

[14] = tested on: giant foxtail (Setaria faberii); test: Test B pre-/postemergence plant response
Summary of the method: as §2

[15] = Postemergence, 16 g ai/ha, scale 0 to 100 (0 no effect, 100 complete control)
[16] = Postemergence, 31 g ai/ha, scale 0 to 100 (0 no effect, 100 complete control)
[17] = Postemergence, 62 g ai/ha, scale 0 to 100, 0 no effect, 100 complete control
[18] = Postemergence, 125 g ai/ha, scale 0 to 100, 0 no effect, 100 complete control
[19] = Preemergence, 16 g ai/ha, scale 0 to 100 (0 no effect, 100 complete control)
[20] = Preemergence, 31 g ai/ha, scale 0 to 100 (0 no effect, 100 complete control)
[21] = Preemergence, 62 g ai/ha, scale 0 to 100 (0 no effect, 100 complete control)
[22] = 31 g ai/ha, Postemergence, 0 to 100 scale, 0 no effect, 100 complete control
[23] = 31 g ai/ha, Preemergence, 0 to 100 scale where 0 is no effect and 100 is complete control
[24] = 125 g ai/ha, postemergence, 0 to 100 scale, 0 no effect, 100 complete control
[25] = Preemergence, 125 g ai/ha, 0 to 100 scale where 0 is no effect and 100 is complete control

FC(F)c1cc(-c2c(Cl)cccc2Oc2ncc(Cl)cn2)on1 [Compound 120]
Ragweed plant response rating [1, 15]: 40 | Ragweed plant response rating [1, 16]: 55 | Plant response rating, Ragweed [1, 17]: 70 | Plant response rating, Ragweed [1, 18]: 85 | Plant response rating (scale 0 to 100), Ragweed ([1]; Preemergence, 125 g ai/ha): 100 | Plant response rating, Ragweed [1, 19]: 0 | Plant response rating, Ragweed [1, 20]: 0 | Plant response rating, Ragweed [1, 21]: 25 | Morningglory plant response rating [2, 15]: 85 | Morningglory plant response rating [2, 16]: 98 | Plant response rating, Morningglory [2, 17]: 80 | Plant response rating, Morningglory [2, 18]: 100 | Plant response rating (scale 0 to 100), Morningglory ([2]; Preemergence, 125 g ai/ha): 75 | Plant response rating, Morningglory [2, 19]: 0 | Plant response rating, Morningglory [2, 20]: 30 | Plant response rating, Morningglory [2, 21]: 60 | Nutsedge, Yellow plant response rating [3, 15]: 5 | Nutsedge, Yellow plant response rating [3, 16]: 10 | Plant response rating, Nutsedge, Yellow [3, 17]: 10 | Plant response rating, Nutsedge, Yellow [3, 18]: 15 | Plant response rating (scale 0 to 100), Nutsedge, Yellow ([3]; Preemergence, 125 g ai/ha): 45 | Plant response rating, Nutsedge, Yellow [3, 19]: 0 | Plant response rating, Nutsedge, Yellow [3, 20]: 5 | Plant response rating, Nutsedge, Yellow [3, 21]: 35 | Barnyardgrass plant response rating [4, 15]: 10 | Barnyardgrass plant response rating [4, 16]: 15 | Plant response rating, Barnyardgrass [4, 17]: 25 | Plant response rating, Barnyardgrass [4, 18]: 40 | Plant response rating (scale 0 to 100), Barnyardgrass ([4]; Preemergence, 62 g ai/ha): 90 | Plant response rating (scale 0 to 100), Barnyardgrass ([4]; Preemergence, 125 g ai/ha): 100 | Plant response rating, Barnyardgrass [4, 19]: 25 | Plant response rating, Barnyardgrass [4, 20]: 75 | Crabgrass, Large plant response rating [5, 15]: 30 | Crabgrass, Large plant response rating [5, 16]: 25 | Plant response rating, Crabgrass, Large [5, 17]: 35 | Plant response rating, Crabgrass, Large [5, 18]: 65 | Plant response rating (scale 0 to 100), Crabgrass, Large ([5]; Preemergence, 125 g ai/ha): 100 | Plant response rating, Crabgrass, Large [5, 19]: 98 | Plant response rating, Crabgrass, Large [5, 20]: 100 | Plant response rating, Crabgrass, Large [5, 21]: 100 | Waterhemp plant response rating [6, 15]: 90 | Waterhemp plant response rating [6, 16]: 100 | Plant response rating, Waterhemp [6, 17]: 100 | Plant response rating, Waterhemp [6, 18]: 100 | Plant response rating (scale 0 to 100), Waterhemp ([6]; Preemergence, 125 g ai/ha): 100 | Plant response rating, Waterhemp [6, 19]: 100 | Plant response rating, Waterhemp [6, 20]: 100 | Plant response rating, Waterhemp [6, 21]: 100 | Pigweed plant response rating [7, 15]: 98 | Pigweed plant response rating [7, 16]: 100 | Plant response rating, Pigweed [7, 17]: 100 | Plant response rating, Pigweed [7, 18]: 100 | Plant response rating (scale 0 to 100), Pigweed ([7]; Preemergence, 125 g ai/ha): 100 | Plant response rating, Pigweed [7, 19]: 100 | Plant response rating, Pigweed [7, 20]: 100 | Plant response rating, Pigweed [7, 21]: 100 | Blackgrass plant response rating [8, 15]: 20 | Blackgrass plant response rating [8, 16]: 35 | Plant response rating, Blackgrass [8, 17]: 60 | Plant response rating, Blackgrass [8, 18]: 55 | Plant response rating (scale 0 to 100), Blackgrass ([8]; Preemergence, 125 g ai/ha): 90 | Plant response rating, Blackgrass [8, 19]: 70 | Plant response rating, Blackgrass [8, 20]: 60 | Plant response rating, Blackgrass [8, 21]: 90 | Foxtail, Giant plant response rating [9, 15]: 10 | Foxtail, Giant plant response rating [9, 16]: 10 | Plant response rating, Foxtail, Giant [9, 17]: 15 | Plant response rating, Foxtail, Giant [9, 18]: 25 | Plant response rating (scale 0 to 100), Foxtail, Giant ([9]; Preemergence, 125 g ai/ha): 100 | Plant response rating, Foxtail, Giant [9, 19]: 95 | Plant response rating, Foxtail, Giant [9, 20]: 98 | Plant response rating, Foxtail, Giant [9, 21]: 98 | Johnsongrass plant response rating [10, 15]: 5 | Johnsongrass plant response rating [10, 16]: 30 | Plant response rating, Johnsongrass [10, 17]: 40 | Plant response rating, Johnsongrass [10, 18]: 85 | Plant response rating (scale 0 to 100), Johnsongrass ([10]; Preemergence, 125 g ai/ha): 98 | Plant response rating, Johnsongrass [10, 19]: 50 | Plant response rating, Johnsongrass [10, 20]: 55 | Plant response rating, Johnsongrass [10, 21]: 95 | Soybean plant response rating (soybean (Glycine max); [15]): 90 | Soybean plant response rating (soybean (Glycine max); [16]): 70 | Plant response rating, Soybean (soybean (Glycine max); [17]): 70 | Plant response rating, Soybean (soybean (Glycine max); [18]): 95 | Plant response rating (scale 0 to 100), Soybean (soybean (Glycine max); Preemergence, 125 g ai/ha): 50 | Plant response rating, Soybean (soybean (Glycine max); [19]): 75 | Plant response rating, Soybean (soybean (Glycine max); [20]): 10 | Plant response rating, Soybean (soybean (Glycine max); [21]): 60 | Plant response rating, Wheat ([11]; 31 g ai/ha, Postemergence): 0 | Plant response rating, Wheat ([11]; 125 g ai/ha, postemergence): 40 | Plant response rating, Barnyardgrass [12, 22]: 50 | Plant response rating, Barnyardgrass [12, 23]: 90 | Plant response rating, Barnyardgrass [12, 24]: 90 | Plant response rating, Barnyardgrass [12, 25]: 100 | Plant response rating, Corn (corn (Zea mays); 31 g ai/ha, Postemergence): 30 | Plant response rating, Corn (corn (Zea mays); 125 g ai/ha, postemergence): 40 | Plant response rating, Pigweed [13, 22]: 100 | Plant response rating, Pigweed [13, 23]: 100 | Plant response rating, Pigweed [13, 24]: 100 | Plant response rating, Foxtail, Giant [14, 22]: 40 | Plant response rating, Foxtail, Giant [14, 23]: 100 | Plant response rating, Foxtail, Giant [14, 24]: 90 | Plant response rating, Foxtail, Giant [14, 25]: 100

FC(F)c1cc(-c2c(Cl)cccc2Oc2ncc(Br)cn2)on1 [Compound 121]
Ragweed plant response rating [1, 16]: 65 | Plant response rating, Ragweed [1, 17]: 75 | Plant response rating, Ragweed [1, 18]: 98 | Morningglory plant response rating [2, 16]: 75 | Plant response rating, Morningglory [2, 17]: 90 | Plant response rating, Morningglory [2, 18]: 98 | Nutsedge, Yellow plant response rating [3, 16]: 10 | Plant response rating, Nutsedge, Yellow [3, 17]: 5 | Plant response rating, Nutsedge, Yellow [3, 18]: 20 | Barnyardgrass plant response rating [4, 15]: 20 | Barnyardgrass plant response rating [4, 16]: 25 | Plant response rating, Barnyardgrass [4, 17]: 25 | Plant response rating, Barnyardgrass [4, 18]: 45 | Crabgrass, Large plant response rating [5, 15]: 15 | Crabgrass, Large plant response rating [5, 16]: 10 | Plant response rating, Crabgrass, Large [5, 17]: 40 | Plant response rating, Crabgrass, Large [5, 18]: 55 | Waterhemp plant response rating [6, 16]: 95 | Plant response rating, Waterhemp [6, 17]: 100 | Plant response rating, Waterhemp [6, 18]: 100 | Pigweed plant response rating [7, 16]: 98 | Plant response rating, Pigweed [7, 17]: 100 | Plant response rating, Pigweed [7, 18]: 100 | Blackgrass plant response rating [8, 15]: 5 | Blackgrass plant response rating [8, 16]: 25 | Plant response rating, Blackgrass [8, 17]: 30 | Plant response rating, Blackgrass [8, 18]: 50 | Foxtail, Giant plant response rating [9, 15]: 10 | Foxtail, Giant plant response rating [9, 16]: 10 | Plant response rating, Foxtail, Giant [9, 17]: 15 | Plant response rating, Foxtail, Giant [9, 18]: 40 | Johnsongrass plant response rating [10, 16]: 35 | Plant response rating, Johnsongrass [10, 17]: 60 | Plant response rating, Johnsongrass [10, 18]: 60 | Soybean plant response rating (soybean (Glycine max); [16]): 60 | Plant response rating, Soybean (soybean (Glycine max); [17]): 90 | Plant response rating, Soybean (soybean (Glycine max); [18]): 95 | Plant response rating, Wheat ([11]; 31 g ai/ha, Postemergence): 0 | Plant response rating, Wheat ([11]; 125 g ai/ha, postemergence): 30 | Plant response rating, Barnyardgrass [12, 22]: 50 | Plant response rating, Barnyardgrass [12, 23]: 70 | Plant response rating, Barnyardgrass [12, 24]: 90 | Plant response rating, Barnyardgrass [12, 25]: 90 | Plant response rating, Corn (corn (Zea mays); 31 g ai/ha, Postemergence): 20 | Plant response rating, Corn (corn (Zea mays); 125 g ai/ha, postemergence): 40 | Plant response rating, Pigweed [13, 22]: 100 | Plant response rating, Pigweed [13, 23]: 100 | Plant response rating, Pigweed [13, 24]: 100 | Plant response rating, Foxtail, Giant [14, 22]: 70 | Plant response rating, Foxtail, Giant [14, 23]: 100 | Plant response rating, Foxtail, Giant [14, 24]: 90 | Plant response rating, Foxtail, Giant [14, 25]: 100
